Where two headings read alike, the source gives them in different places. Some results are limits rather than exact numbers.

One data set has as its system Sprague-Dawley rats. Nature of the data set: In vivo sedative/hypnotic testing, IV bolus, rats. The arrangement: species or system rat. As to conditions: for Rat response: IV bolus, doses as in the cell; for ED50: Rattus norvegicus, sedation/hypnosis, IV. How it is done: (§1) Animals were housed in a dedicated room at the vivarium of VivoPath Inc., located at Redstone Center, 55 Union Street, Worcester, Mass. Housing and care was as specified in the USDA Animal Welfare Act (9 CFR, Parts 1, 2, and 3) and as described in the Guide for the Care and Use of Laboratory Animals from the National Research Council. Environmental conditions of housing rooms are set at the following ranges: temperature: 70±7° F. (22±4° C.), humidity: 50±20%, light cycle: 12-hour light/12-hour dark cycle—lights on at 7 am and off at 7 pm., air changes: ten or more air changes per hour with 100% fresh air. The animals' body weights were measured prior to the first dose on each experimental day.
Adult male Sprague-Dawley rats (225-300 g) were purchased from Harlan (South Easton, Mass.).
(§2) Drugs were prepared in either dimethylsulfoxide/saline or saline vehicle or hydroxypropyl-β-cyclodextrin (20% in water, pH 7.0) solution and were administered as an intravenous bolus injection. Animals received 1-4 doses of drug(s) during an experimental day, either ascending doses or different drugs. Doses were administered at intervals equal to the longer of 1 h or 10-times the duration of apparent sedative/hypnotic effects from the previous dose. The sedative/hypnotic properties of the drugs were evaluated by observation of the rats, ranging from mild excitation, mild sedation apparent due to reduced activity, and moderate sedation to hypnosis reflected by loss of righting reflex (LORR, the ability to place rear and hind legs under the body, as well as attenuation/loss of nociceptive reflexes).

The subject of another data set is ICR mice. Briefly: In vivo sedative/hypnotic testing, IV bolus, mice. Also on record: species or system mouse. The note with it: for Mouse response: IV bolus, doses as in the cell; for ED50: Mus musculus, sedation/hypnosis, IV. How it is done: as §1
Adult ICR mice (20-30 g) were purchased from Harlan (South Easton, Mass.). Drugs were administered as intravenous bolus injection in a tail vein.
as §2

For another data set, the system named is beagle dogs. As to conditions: dog, in vivo. How it is done:
A pilot study was conducted in dogs to assess anesthesia induced by cyclopropyl-MOC-metomidate continuous infusion without a bolus induction dosing. Two dogs received cyclopropyl-MOC-metomidate as a 1 mg/kg/min IV infusion without prior bolus administration.
Anesthesia induction was determined using the methods described above.
Etomidate was administered to dogs at IV bolus doses ranging from 0.25 to 2 mg/kg. Anesthesia in the dogs was measured as described above. […] The bolus dose of 2 mg/kg was adopted to induce anesthesia prior to subsequent continuous infusions.
Propofol was administered to dogs as an IV bolus dose of 5 mg/kg to induce anesthesia followed by a continuous infusion at 0.4 mg/kg/min.

The next data set deals with rats. Nature of the data set: loss of righting reflexes (LORR) assay after IV bolus. The note with it: for R/S ED50 ratio: ED50 for LORR of R form over S form; for ED50: Rattus norvegicus, iv, read-out: ED50 ± SD; for hypnotic potency compared with methoxycarbonyl etomidate and etomidate / in vivo duration of action compared with methoxycarbonyl etomidate and etomidate: rat, in vivo.

A short description of data set [1]: In vitro metabolic half-life of hypnotics in rat blood. The format is in vitro ADME. The note with it: for half-life at 100 μM: Sprague-Dawley, rat; for half-life at 100 μM / metabolic half-life of S form compared with R form: rat blood. On the procedure:
On the day of study, whole blood was drawn from the femoral venous catheters of 3 Sprague-Dawley rats (1-2 ml/rat), immediately anticoagulated with heparin (38 U), pooled, and stored on ice. A 1 ml aliquot of blood was warmed at 37° C. for 5 minutes and hypnotic (from a 40 mM in dimethyl sulfoxide stock solution) was added to a final concentration of 100 μM. After the desired incubation time, a 150 μl sample was removed and the metabolic reaction was quenched with 150 μl acetonitrile (Sigma-Aldrich, St. Louis, Mo.). Zero time point samples were prepared by adding 150 μl acetonitrile to blood prior to adding hypnotic (from a 4 mM in dimethyl sulfoxide stock solution). The quenched samples were centrifuged and the resultant supernatant separated and stored at −20° C. until analyzed. Hypnotic concentrations in thawed samples were determined by high performance liquid chromatography using a Varian Prostar system with a 4.6×250 mm Proto 300 C18 column (Nest Group, Southborough, Mass.) with the UV detector set at 240 nm.

The nature of data set [2]: Octanol:water partition coefficients. Type of data set: physicochemical. The note with it: 10 mM Tris pH 7.4; read-out: Octanol/Water Partition Coefficient ± SD (converted). On the procedure:
One mg of each hypnotic was added to 10 ml of water buffered with 10 mM Tris (pH 7.4) and 0.5 ml or 1 ml of octanol. The mixture was stirred overnight and then centrifuged to more fully separate the organic and aqueous phases. The relative hypnotic concentrations in each phase (i.e. the partition coefficient) were determined by high performance liquid chromatography as described for blood.

The mark [3] stands for this setting: pooled heparinised whole blood, 37° C., 100 μM, read-out: Blood Half-Life (95% CI).

Take `COC(=O)C1(OC(=O)c2cncn2[C@H](C)c2ccccc2)CCOCC1`: in the data set on Sprague-Dawley rats, the Rat response entry was “Mildly sedative at 16 mg/kg More profound short-acting sedation at 32 mg/kg”.

In the case of `C[C@H](c1ccccc1)n1cncc1C(=O)OC1(C(=O)OC2COC2)CC1`, in the data set with ICR mice, the Mouse response entry is “No effect at 4 mg/kg IV”.

For the compound `CC(C)c1cccc(C(C)C)c1O` [Propofol], in the data set on beagle dogs, the “emergence from anesthesia after the end of infusion” value is recorded as “approximately 15 minutes”, the “recovery of normal behavior after infusion” value is ≥ 30 min and the “recovery time relative to cyclopropyl-MOC-metomidate infusion of the same duration” value was “approximately 3 fold”.

As to `COC(=O)C1(OC(=O)c2cncn2[C@H](C)c2ccccc2)CCNCC1`, the Rat response entry in the data set with Sprague-Dawley rats is recorded as “No effect apparent at 4, 8 & 16 mg/kg”.

Turning to methyl-methoxycarbonyl metomidate, in the data set with rats, the “R/S ED50 ratio” value is 2.7.

As for `COC(=O)C1(OC(=O)c2cncn2[C@H](C)c2ccccc2)CCN(C)CC1`, the Rat response entry with Sprague-Dawley rats is on record as “No effect apparent at 4, 8 & 16 mg/kg”.

As to `COC(=O)C(C)(C)OC(=O)c1cncn1[C@H](C)c1ccccc1` [Dimethyl- methoxycarbonyl metomidate, dimethyl-methoxycarbonyl metomidate], the “in vitro metabolic half-life compared with methoxycarbonyl etomidate and etomidate” value in data set [1] is “intermediate between those of methoxycarbonyl etomidate and etomidate”. Also, the half-life (usually the time in which the quantity being followed falls by half) at 100 μM in data set [1] (37° C., 100 μM, read-out: Blood Half-Life (95% CI)) was found to be 522 s. Also, in data set [2], the logD was 2.82. In the data set on rats (20 mg/kg dose vs ED50), the “lethal dose relative to ED50 for LORR” value is listed as 28 fold. Besides, in the data set with rats, the 50% effective dose (ED50) (in general, the midpoint of the dose-response relation) stood at 0.72 ± 0.16 mg/kg; the “hypnotic potency compared with methoxycarbonyl etomidate and etomidate” value is “nearly an order of magnitude higher than that of methoxycarbonyl etomidate and similar to that of etomidate”; the “in vivo duration of action compared with methoxycarbonyl etomidate and etomidate” value is “intermediate between those of methoxycarbonyl etomidate and etomidate”. For the same compound, the “death of a rat after dosing” value in the data set on rats (one rat, 20 mg/kg dose) is “died”.

`COC(=O)[C@H](C)COC(=O)c1cncn1[C@H](C)c1ccccc1` [α-(R)- methyl- methoxycarbonyl etomidate, α-R-methyl-methoxycarbonyl etomidate]: the half-life at 100 μM in data set [1] (setting [3]) was determined as 11.4 s. In addition, the logD in data set [2] was 2.83. Further, the ED50 in the data set with rats was 5.2 ± 0.5 mg/kg.

As for `COC(=O)C[C@@H](C)OC(=O)c1cncn1[C@H](C)c1ccccc1` [β-(R)- methyl- methoxycarbonyl etomidate, β-R-methyl-MOC-etomidate], the half-life at 100 μM in data set [1] (setting [3]) worked out at 54.6 s. Besides, the logD in data set [2] is 2.7. In addition, in the data set on rats, the ED50 is 3.5 ± 0.6 mg/kg.

Consider β-methyl-methoxycarbonyl etomidate, for which the “R/S ED50 ratio” value with rats is on record as 1.2.

Consider `COC(=O)C[C@H](C)OC(=O)c1cncn1[C@H](C)c1ccccc1` [β-(S)- methyl- methoxycarbonyl etomidate, β-S-methyl-MOC-etomidate], for which the half-life at 100 μM in data set [1] (setting [3]) came out at 43.2 s. Besides, the logD in data set [2] is 2.68. In the data set on rats, the ED50 came to 2.9 ± 0.3 mg/kg.

Regarding `COC(=O)[C@@H](C)COC(=O)c1cncn1[C@H](C)c1ccccc1` [α-(S)- methyl- methoxycarbonyl etomidate, α-S-methyl-methoxycarbonyl etomidate], in data set [1] (setting [3]), the half-life at 100 μM came out at 45.6 s. For the same compound, the “metabolic half-life of S form compared with R form” value in data set [1] is “at least four-fold longer”. Also, in data set [2], the logD is 2.72. In the data set on rats, the ED50 came to 3.1 ± 0.4 mg/kg.

`COC(=O)c1cncn1[C@H](C)c1ccccc1` [Metomidate, reference compound]: the half-life at 100 μM in data set [1] (setting [3]) was 8580 s. The logD in data set [2] was 2.58. In addition, the ED50 in the data set with rats was determined as 0.73 ± 0.5 mg/kg.

In the case of `COC(=O)C1(OC(=O)c2cncn2[C@H](C)c2ccccc2)CC1` [drawing 83], in the data set on ICR mice, the Mouse response result is on record as “Sedation/hypnosis induced at 2 & 4 mg/kg IV” and the ED50 was ~0.7 mg/kg. Moreover, in the data set on Sprague-Dawley rats, the Rat response result is “Sedation/hypnosis induced at 2 & 4 mg/kg IV” and the ED50 is ~0.7 mg/kg.

For the compound `COC(=O)CC(C)(C)OC(=O)c1cncn1[C@H](C)c1ccccc1` [β-dimethyl- methoxycarbonyl etomidate, β-dimethyl-MOC-etomidate], in data set [1] (setting [3]), the half-life at 100 μM came to 1400 s. Besides, the logD in data set [2] was 3.2. Also, the ED50 with rats came out at 1.9 ± 0.3 mg/kg.

With `CCOC(=O)c1cncn1[C@H](C)c1ccccc1` [drawing 81], in the data set on ICR mice, the Mouse response result is on record as “Sedation/hypnosis induced at 2 & 4 mg/kg IV” and the ED50 was ~0.7 mg/kg. In the data set on Sprague-Dawley rats, the Rat response entry was “Sedation/hypnosis induced at 2 & 4 mg/kg IV” and the median effective dose (ED50) is ~0.7 mg/kg.

As for cyclopentyl-methoxycarbonyl metomidate, in the data set on rats, the “hypnotic potency compared with methoxycarbonyl etomidate and etomidate” value was “nearly an order of magnitude higher than that of methoxycarbonyl etomidate and similar to that of etomidate”; the “in vivo duration of action compared with methoxycarbonyl etomidate and etomidate” value was “intermediate between those of methoxycarbonyl etomidate and etomidate”.

As to `COC(=O)[C@H](C)OC(=O)c1cncn1[C@H](C)c1ccccc1` [(S)-methyl- methoxycarbonyl metomidate, S-methyl-methoxycarbonyl metomidate], the half-life at 100 μM in data set [1] (setting [3]) was 8.4 s. Moreover, the “metabolic half-life of S form compared with R form” value in data set [1] is “at least four-fold longer”. The logD in data set [2] is 2.52. In addition, the ED50 in the data set on rats came out at 3.5 ± 0.4 mg/kg.

As for `COC(=O)C(OC(=O)c1cncn1[C@H](C)c1ccccc1)C1CC1` (stereo partly drawn), in the data set on ICR mice, the Mouse response result is reported as “Sedation/hypnosis induced at 8, 16 & 32 mg/kg IV” and the ED50 was ~8 mg/kg.

As to `COC(=O)C1(OC(=O)c2cncn2[C@H](C)c2ccccc2)CCCC1`, in the data set on Sprague-Dawley rats, the Rat response result was “Sedative at 1 & 2 mg/kg, with rear paws out but head and forepaws mobile Hypnotic at 4 & 8 mg/kg, quite long-acting”.

Consider `COC(=O)C1(OC(=O)c2cncn2[C@H](C)c2ccccc2)CCC1` [Cyclobutyl-MOC-metomidate, cyclobutyl-methoxycarbonyl metomidate], for which, in the data set on ICR mice, the Mouse response entry is on record as “Sedation/hypnosis induced at 2, 4 & 8 mg/kg IV” and the ED50 was 1 to 2 mg/kg. Also, in the data set on ICR mice (mice), the “slope of duration of LORR vs logarithm of dose” value is “approximately 7”. For the same compound, in the data set on Sprague-Dawley rats, the Rat response entry is given as “Sedation/hypnosis induced at 1, 2, 4 & 8 mg/kg IV” and the ED50 is ~1 mg/kg. The “slope of duration of LORR vs logarithm of dose” value with Sprague-Dawley rats (rats) is recorded as ~5. In addition, in the data set with rats, the “hypnotic potency compared with methoxycarbonyl etomidate and etomidate” value is “nearly an order of magnitude higher than that of methoxycarbonyl etomidate and similar to that of etomidate”; the “in vivo duration of action compared with methoxycarbonyl etomidate and etomidate” value was “intermediate between those of methoxycarbonyl etomidate and etomidate”.

As to `COC(=O)c1ccccc1OC(=O)c1cncn1[C@H](C)c1ccccc1`, the Mouse response result with ICR mice is listed as “Mild excitation but no sedation at 2, 4 or 8 mg/kg IV”.

For α-methyl-methoxycarbonyl etomidate, the “R/S ED50 ratio” value with rats is recorded as 1.7.

With `COC(=O)C1(OC(=O)c2cncn2[C@H](C)c2ccccc2)CCCCC1`, the Rat response entry in the data set with Sprague-Dawley rats is “Mildly sedative at 4 mg/kg Hypnotic at 8 mg/kg - deep and long-acting”.

As for `COC(=O)COC(=O)c1cncn1[C@H](C)c1ccccc1` [Methoxycarbonyl metomidate, methoxycarbonyl metomidate], the half-life at 100 μM is < 1.8 s in data set [1] (setting [3]) and < 2 s in data set [1] (pooled heparinised whole blood, bound based on the lower limit of quantification, read-out: metabolic half-life in rat blood (converted)). The logD in data set [2] is 2.2. The ED50 in the data set with rats came to 11.1 ± 0.8 mg/kg.

For `COC(=O)C(OC(=O)c1cncn1C(C)c1ccccc1)C(C)C` (stereo not drawn) [isopropyl-methoxycarbonyl metomidate], the “R/S ED50 ratio” value in the data set with rats turned out to be 3.0.

The record behind these values is US10154991B2, “Anesthetic compounds and related methods of use” (priority 2012, dated 2018).
